Measured values published in US11534457B2, “Use of dextran sulfate” (priority 2017, dated 2022).
Marks after values point to notes of the source that are not given here.

System: severe traumatic brain injury (sTBI)
Test: sTBI in rats, HPLC of purine-pyrimidine / energy metabolites in brain (Example 3)
Assay type: in vivo, Male Wistar rats
Experimental: The experimental protocol used in this study was approved by the Ethical Committee of the Catholic University of Rome, according to international standards and guidelines for animal care. Male Wistar rats of 300-350 g body weight (b.w.) were fed with standard laboratory diet and water ad libitum in a controlled environment.
1) n=6 animals subjected to sTBI, with drug administration after 30 minutes and sacrifice at 2 days post-TBI (Acute phase 1)
2) n=6 animals subjected to severe-TBI, with drug administration after 30 minutes and sacrifice at 7 days post-TBI (Acute phase 2).
3) n=6 animals subjected to severe-TBI, with drug administration after 3 days and sacrifice at 7 days post-TBI (Chronic phase).
As the anesthetic mixture, animals received 35 mg/kg b.w. ketamine and 0.25 mg/kg b.w. midazolam by i.p. injection. sTBI was induced by dropping a 450 g weight from 2 m height on to the rat head that had been protected by a metal disk previously fixed on the skull, according to the “weight drop” impact acceleration model (Marmarou et al., A new model of diffuse brain injury in rats. Part I: Pathophysiology and biomechanics. J Neurosurg. 1994; 80: 291-300). […] At the end of each period of treatment, rats were anesthetized again and then immediately sacrificed.
The drug treatment was a subcutaneous injection of 0.5 ml of LMW-DS (15 mg/kg) and administered according to the aforementioned schematic protocol.
An in vivo craniectomy was performed in all animals during anesthesia, after carefully removing the rat's skull, the brain was exposed and removed with a surgical spatula and quickly dropped in liquid nitrogen. After the wet weight (w.w.) determination, tissue preparation was affected as previously disclosed (Tavazzi et al., Cerebral oxidative stress and depression of energy metabolism correlate with severity of diffuse brain injury in rats. Neurosurgery. 2005; 56: 582-589; Vagnozzi et al., Temporal window of metabolic brain vulnerability to concussions: mitochondrial-related impairment-part I. Neurosurgery. 2007; 61: 379-388; Tavazzi et al., Temporal window of metabolic brain vulnerability to concussions: oxidative and nitrosative stresses-part II. Neurosurgery. 2007; 61: 390-395; Amorini et al., Severity of experimental traumatic brain injury modulates changes in concentrations of cerebral free amino acids. J Cell Mol Med. 2017; 21: 530-542.). Briefly, whole brain homogenization was performed with 7 ml of ice-cold, nitrogen-saturated, precipitating solution composed by CH3CN+10 mM KH2PO4, pH 7.40, (3:1; v:v), and using an Ultra-Turrax set at 24,000 rpm/min (Janke & Kunkel, Staufen, Germany). After centrifugation at 20,690×g, for 10 min at 4° C., the clear supernatants were saved, pellets were supplemented with 3 ml of the precipitating solution and homogenized again as described above. A second centrifugation was performed (20,690×g, for 10 min at 4° C.), pellets were saved, supernatants combined with those previously obtained, extracted by vigorous agitation with a double volume of HPLC-grade CHCl3 and centrifuged as above. The upper aqueous phases containing water-soluble low-molecular weight compounds were collected, subjected to chloroform washings for two more times (this procedure allowed the removal of all the organic solvent and of any lipid soluble compound from the buffered tissue extracts), adjusted in volumes with 10 mM KH2PO4, pH 7.40, to have ultimately aqueous 10% tissue homogenates and saved at −80° C. until assayed. […]

[1] = Acute phase 1: 15 mg/kg s.c. 30 min post-sTBI, sacrifice 2 days
[2] = Acute phase 2: 15 mg/kg s.c. 30 min post-sTBI, sacrifice 7 days

Substance: low molecular weight dextran sulfate [LMW-DS]
- brain MDA levels (15 mg/kg s.c.): significant reduction
- brain NAA and its substrates (15 mg/kg s.c.): significant improvements
- brain ascorbic acid and GSH levels (15 mg/kg s.c.): significant improvement
- brain nitrate concentrations (15 mg/kg s.c., acute and chronic phases of sTBI): significantly decreased
- ADO, cerebral concentration [1]: 71.67 ± 15.87 nmol/g (w.w.)
- ADP, cerebral concentration [1]: 279.34 ± 29.59^b nmol/g (w.w.)
- ADP-ribose, cerebral concentration [1]: 137.87 ± 43.18^a nmol/g (w.w.)
- AMP, cerebral concentration [1]: 53.61 ± 17.91^a,c,j nmol/g (w.w.)
- ATP, cerebral concentration [1]: 1464.25 ± 99.09^a,h nmol/g (w.w.)
- CDP choline, cerebral concentration [1]: 10.93 ± 3.22^b,h nmol/g (w.w.)
- CDP, cerebral concentration [1]: 25.53 ± 6.83^a,c nmol/g (w.w.)
- CMP, cerebral concentration [1]: 30.12 ± 9.97^a,h nmol/g (w.w.)
- CTP, cerebral concentration [1]: 18.98 ± 6.58^a,g nmol/g (w.w.)
- CoA-SH, cerebral concentration [1]: 21.61 ± 3.42^a,h nmol/g (w.w.)
- GDP glucose, cerebral concentration [1]: 38.71 ± 6.86 nmol/g (w.w.)
- GDP, cerebral concentration [1]: 158.72 ± 24.57^a nmol/g (w.w.)
- GMP, cerebral concentration [1]: 177.00 ± 32.39^a,g nmol/g (w.w.)
- GSH, cerebral concentration [1]: 2649.50 ± 397.31^a,d nmol/g (w.w.)
- GSSG, cerebral concentration [1]: 185.21 ± 48.10 nmol/g (w.w.)
- GTP, cerebral concentration [1]: 255.29 ± 45.21^a,g nmol/g (w.w.)
- IMP, cerebral concentration [1]: 67.71 ± 10.63^g,i nmol/g (w.w.)
- MDA, cerebral concentration [1]: 12.47 ± 2.09^a,c,g nmol/g (w.w.)
- NADH, cerebral concentration [1]: 15.49 ± 2.05^c,j nmol/g (w.w.)
- NADPH, cerebral concentration [1]: 6.22 ± 1.73 nmol/g (w.w.)
- NADP^+, cerebral concentration [1]: 17.95 ± 3.28^a nmol/g (w.w.)
- NAD^+, cerebral concentration [1]: 404.63 ± 51.10^a,c,i nmol/g (w.w.)
- NM, cerebral concentration [1]: 6147.91 ± 989.12^a nmol/g (w.w.)
- NO2, cerebral concentration [1]: 216.03 ± 41.74^a nmol/g (w.w.)
- NO3, cerebral concentration [1]: 210.64 ± 91.95^d nmol/g (w.w.)
- UDP, cerebral concentration [1]: 61.83 ± 10.23^a,g nmol/g (w.w.)
- UDP-Gal, cerebral concentration [1]: 119.45 ± 12.50 nmol/g (w.w.)
- UDP-GalNac, cerebral concentration [1]: 19.17 ± 4.01^a nmol/g (w.w.)
- UDP-Glc, cerebral concentration [1]: 32.14 ± 4.59^g nmol/g (w.w.)
- UDP-GlcNac, cerebral concentration [1]: 95.85 ± 19.73^h,i nmol/g (w.w.)
- UMP, cerebral concentration [1]: 107.80 ± 21.62 nmol/g (w.w.)
- UTP, cerebral concentration [1]: 123.46 ± 15.42^d nmol/g (w.w.)
- acetyl-CoA, cerebral concentration [1]: 21.56 ± 6.22^a,g,i nmol/g (w.w.)
- adenine, cerebral concentration [1]: 44.82 ± 6.31^a,d,g nmol/g (w.w.)
- ascorbic acid, cerebral concentration [1]: 3733.10 ± 277.88^a,d nmol/g (w.w.)
- creatinine, cerebral concentration [1]: 24.55 ± 3.20^b,g,i nmol/g (w.w.)
- cytidine, cerebral concentration [1]: 15.40 ± 3.04 nmol/g (w.w.)
- cytosine, cerebral concentration [1]: 17.69 ± 2.50^b,d nmol/g (w.w.)
- guanine, cerebral concentration [1]: 4.80 ± 1.24^b nmol/g (w.w.)
- guanosine, cerebral concentration [1]: 20.71 ± 5.66 nmol/g (w.w.)
- hypoxanthine, cerebral concentration [1]: 14.47 ± 2.87^a nmol/g (w.w.)
- inosine, cerebral concentration [1]: 92.55 ± 31.20^c nmol/g (w.w.)
- malonyl-CoA, cerebral concentration [1]: 12.33 ± 1.82^b nmol/g (w.w.)
- orotic acid, cerebral concentration [1]: 8.80 ± 2.45^b,h,j nmol/g (w.w.)
- thymidine, cerebral concentration [1]: 0.69 ± 0.11 nmol/g (w.w.)
- uracil, cerebral concentration [1]: 14.56 ± 5.44 nmol/g (w.w.)
- uric acid, cerebral concentration [1]: 23.62 ± 3.77^a,d,h nmol/g (w.w.)
- uridine, cerebral concentration [1]: 76.35 ± 12.85^a,c nmol/g (w.w.)
- xanthine, cerebral concentration [1]: 9.46 ± 2.34^d nmol/g (w.w.)
- β-pseudouridine, cerebral concentration [1]: 6.65 ± 1.30^g,i nmol/g (w.w.)
- ADO, cerebral concentration [2]: 82.11 ± 16.51^a nmol/g (w.w.)
- ADP, cerebral concentration [2]: 264.07 ± 28.29^b,e,j nmol/g (w.w.)
- ADP-ribose, cerebral concentration [2]: 141.96 ± 23.56^a,e,j nmol/g (w.w.)
- AMP, cerebral concentration [2]: 57.70 ± 23.01^a,e,j nmol/g (w.w.)
- ATP, cerebral concentration [2]: 1632.23 ± 90.07^a,e,j nmol/g (w.w.)
- CDP choline, cerebral concentration [2]: 6.91 ± 1.86 nmol/g (w.w.)
- CDP, cerebral concentration [2]: 24.29 ± 6.76^a nmol/g (w.w.)
- CMP, cerebral concentration [2]: 15.68 ± 2.12^f,j nmol/g (w.w.)
- CTP, cerebral concentration [2]: 32.63 ± 3.99^e,i nmol/g (w.w.)
- CoA-SH, cerebral concentration [2]: 30.57 ± 6.02^f nmol/g (w.w.)
- GDP glucose, cerebral concentration [2]: 49.25 ± 10.33^a nmol/g (w.w.)
- GDP, cerebral concentration [2]: 126.70 ± 31.35^a,j nmol/g (w.w.)
- GMP, cerebral concentration [2]: 91.47 ± 12.35^e,i nmol/g (w.w.)
- GSH, cerebral concentration [2]: 2821.50 ± 242.82^a,e nmol/g (w.w.)
- GSSG, cerebral concentration [2]: 219.54 ± 53.36 nmol/g (w.w.)
- GTP, cerebral concentration [2]: 336.65 ± 35.18^a,e,j nmol/g (w.w.)
- IMP, cerebral concentration [2]: 102.63 ± 22.09^a nmol/g (w.w.)
- MDA, cerebral concentration [2]: 4.82 ± 1.73^a,e,i nmol/g (w.w.)
- NADH, cerebral concentration [2]: 13.12 ± 4.19^e nmol/g (w.w.)
- NADPH, cerebral concentration [2]: 7.05 ± 2.21 nmol/g (w.w.)
- NADP^+, cerebral concentration [2]: 21.27 ± 4.19^b,e,j nmol/g (w.w.)
- NAD^+, cerebral concentration [2]: 401.18 ± 34.53^a,e,i nmol/g (w.w.)
- NM, cerebral concentration [2]: 7262.84 ± 749.73^a,e nmol/g (w.w.)
